Measurements published in patent US20220169632A1, “METHODS AND MATERIALS FOR INCREASING OR MAINTAINING NICOTINAMIDE MONONUCLEOTIDE ADENYLYL TRANSFERASE-2 (NMNAT2) POLYPEPTIDE LEVELS” (University of Pittsburgh - Of the Commonwealth System of …, priority 2019, published 2022).

Test system: NMNAT2
Experiment: NMNAT2-Hibit nano-luciferase activity in transfected U87MG cells, 25 μM, 24 hours
Format: cell-based
Conditions: NMNAT2-Hibit luc plasmid; for C: Compound efficacy for NMNAT2 activation; increase in NMNAT2 luciferase activity: 24 hours (Table C); for B: compound efficacy (IC50) for NMNAT2 activation; increase in NMNAT2 luciferase activity: 24 hours (Table B)
Method: Selected compounds were tested in vitro. Briefly, U87MG cells were transfected with NMNAT2-Hibit luc plasmid. Cells were treated with a test compound at 25 μM for 24 hours. Cells were then collected and assayed for nano-luciferase activity.

SMILES | C: Compound efficacy for NMNAT2 activation; increase in NMNAT2 luciferase activity | B: compound efficacy (IC50) for NMNAT2 activation; increase in NMNAT2 luciferase activity
Cc1ccc(Cn2cc(CCC(=O)NCc3ccco3)c3ccccc32)cc1 [Compound 181116] | ++ (“++” >20% and <100% increase in NMNAT2 luciferase activity.) | –
CC(C)c1ccc(NC(=O)NCc2noc3ccccc23)cc1 [Compound 181010] | – | + (“+” <20% increase in NMNAT2 luciferase activity.)
Cc1ccc2onc(CNC(=O)NCc3cccc(Cl)c3)c2c1 [Compound 181077] | – | ++ (“++” >20% and <100% increase in NMNAT2 luciferase activity.)
CCOc1ccc(CCNC(=O)NCc2noc3ccc(C)cc23)cc1 [Compound 181088] | – | + (“+” <20% increase in NMNAT2 luciferase activity.)
Cc1ccc2onc(CNC(=O)NC3CCN(Cc4ccccc4)CC3)c2c1 [Compound 181065] | – | + (“+” <20% increase in NMNAT2 luciferase activity.)
Cc1cc(C)n(CC(=O)NCc2ccccc2)c(=O)c1C#N [Compound 181120] | + (“+” <20% increase in NMNAT2 luciferase activity.) | –
Cc1ccc2onc(CNC(=O)Nc3ccccc3Cl)c2c1 [Compound 181079] | – | + (“+” <20% increase in NMNAT2 luciferase activity.)
Cc1ccc2onc(CNC(=O)NC3CCCCC3C)c2c1 (stereo not drawn) [Compound 181085] | – | + (“+” <20% increase in NMNAT2 luciferase activity.)
Cc1cc(C)cc(NC(=O)NCc2noc3ccccc23)c1 [Compound 181035] | – | + (“+” <20% increase in NMNAT2 luciferase activity.)
Cc1ccc(N(C)C(=O)NCc2noc3ccccc23)cc1C [Compound 181014] | – | + (“+” <20% increase in NMNAT2 luciferase activity.)
Cc1cc(C)cc(NC(=O)NCc2noc3ccc(C)cc23)c1 [Compound 181091] | – | + (“+” <20% increase in NMNAT2 luciferase activity.)
CC(=O)c1cccc(NC(=O)NCc2noc3ccc(C)cc23)c1 [Compound 181084] | – | + (“+” <20% increase in NMNAT2 luciferase activity.)
O=C(Cn1ccc2ccc(F)cc21)NCc1ccco1 [Compound 181152] | + (“+” <20% increase in NMNAT2 luciferase activity.) | –
Cc1ccc2onc(CNC(=O)NC3CCCC3)c2c1 [Compound 181071] | – | + (“+” <20% increase in NMNAT2 luciferase activity.)
O=C(Cn1ccc2cc(Br)ccc21)NCc1ccco1 [Compound 181149] | ++ (“++” >20% and <100% increase in NMNAT2 luciferase activity.) | –
Cc1ccc2onc(CNC(=O)Nc3ccc(C)c(F)c3)c2c1 [Compound 181039] | – | + (“+” <20% increase in NMNAT2 luciferase activity.)
Cc1cc(Br)ccc1NC(=O)NCc1noc2ccccc12 [Compound 181007] | – | + (“+” <20% increase in NMNAT2 luciferase activity.)
O=C(NCCn1ccc2ccc(Cl)cc21)c1ccco1 [Compound 181156] | + (“+” <20% increase in NMNAT2 luciferase activity.) | –
Cc1ccc2onc(CNC(=O)NCCN(C)Cc3ccccc3)c2c1 [Compound 181073] | – | + (“+” <20% increase in NMNAT2 luciferase activity.)
Cc1cc(C)n(CC(=O)NCc2ccc(F)cc2)c(=O)c1C#N [Compound 181123] | + (“+” <20% increase in NMNAT2 luciferase activity.) | –
O=C(NCc1ccc(Cl)cc1)NCc1noc2ccccc12 [Compound 181029] | – | ++ (“++” >20% and <100% increase in NMNAT2 luciferase activity.)
CCc1ccc(CNC(=O)NCc2noc3ccc(C)cc23)cc1 [Compound 181068] | – | ++ (“++” >20% and <100% increase in NMNAT2 luciferase activity.)
COc1cccc(CNC(=O)Cn2c(C)cc(C)c(C#N)c2=O)c1 [Compound 181125] | + (“+” <20% increase in NMNAT2 luciferase activity.) | –
COc1ccccc1CNC(=O)NCc1noc2ccccc12 [Compound 181008] | – | + (“+” <20% increase in NMNAT2 luciferase activity.)
COc1ccc(CNC(=O)Cn2ccc3ccc(F)cc32)cc1OC [Compound 181150] | + (“+” <20% increase in NMNAT2 luciferase activity.) | –
Cc1cc(C)n(CC(=O)NCc2ccco2)c(=O)c1C#N [Compound 181128] | + (“+” <20% increase in NMNAT2 luciferase activity.) | –
COc1ccccc1CNC(=O)Cn1ccc2ccc(F)cc21 [Compound 181151] | + (“+” <20% increase in NMNAT2 luciferase activity.) | –

SMILES | C: Compound efficacy for NMNAT2 activation; increase in NMNAT2 luciferase activity | B: compound efficacy (IC50) for NMNAT2 activation; increase in NMNAT2 luciferase activity
CCn1ccc2cc(CCC(=O)NCc3ccco3)ccc21 [Compound 181141] | ++ (“++” >20% and <100% increase in NMNAT2 luciferase activity.) | –
Cc1ccc(CNC(=O)c2ccc(NC(=O)Cn3c(C)cc(C)c(C#N)c3=O)cc2)o1 [Compound 181134] | + (“+” <20% increase in NMNAT2 luciferase activity.) | –
Cc1ccc(CNC(=O)Cn2c(C)cc(C)c(C#N)c2=O)cc1 [Compound 181121] | + (“+” <20% increase in NMNAT2 luciferase activity.) | –
Cn1c(=O)c(=O)n(CC(=O)NCc2ccco2)c2ccccc21 [Compound 181136] | + (“+” <20% increase in NMNAT2 luciferase activity.) | –
Cc1ccc2onc(CNC(=O)N(C)c3ccc(F)cc3)c2c1 [Compound 181087] | – | + (“+” <20% increase in NMNAT2 luciferase activity.)
O=C(NCCn1ccc2cc(Br)ccc21)c1ccco1 [Compound 181158] | + (“+” <20% increase in NMNAT2 luciferase activity.) | –
Cc1ccc(NC(=O)NCc2noc3ccccc23)c(Br)c1 [Compound 181003] | – | + (“+” <20% increase in NMNAT2 luciferase activity.)
Cc1ccc2onc(CNC(=O)Nc3ccc(Cl)cc3)c2c1 [Compound 181080] | – | + (“+” <20% increase in NMNAT2 luciferase activity.)
Cc1ccc2onc(CNC(=O)N(C)c3ccc(C)c(C)c3)c2c1 [Compound 181056] | – | + (“+” <20% increase in NMNAT2 luciferase activity.)
Cc1ccc2onc(CNC(=O)N(C)c3cccc(Cl)c3)c2c1 [Compound 181055] | – | + (“+” <20% increase in NMNAT2 luciferase activity.)
Cc1ccc(Cn2cc(CCCC(=O)NCc3ccco3)c3ccccc32)cc1 [Compound 181114] | +++ (“+++” >100% increase in NMNAT2 luciferase activity.) | –
Cc1cc2c(=O)n(CC(=O)NCc3ccco3)ccc2s1 [Compound 181140] | + (“+” <20% increase in NMNAT2 luciferase activity.) | –
Cc1ccc2onc(CNC(=O)Nc3ccc(F)cc3F)c2c1 [Compound 181042] | – | + (“+” <20% increase in NMNAT2 luciferase activity.)
CSc1ccc(CCNC(=O)NCc2noc3ccccc23)cc1 [Compound 181033] | – | ++ (“++” >20% and <100% increase in NMNAT2 luciferase activity.)
O=C(Cn1c(-c2cccs2)cc2cc(F)ccc21)NCc1ccco1 [Compound 181118] | + (“+” <20% increase in NMNAT2 luciferase activity.) | –
CC(=O)c1c(C)n(CC(=O)NCc2ccco2)c2ccccc12 [Compound 181109] | + (“+” <20% increase in NMNAT2 luciferase activity.) | –
Cc1ccc2onc(CNC(=O)Nc3ccc(C(C)C)cc3)c2c1 [Compound 181053] | – | + (“+” <20% increase in NMNAT2 luciferase activity.)
Cc1ccc2onc(CNC(=O)NCc3ccc(Cl)cc3)c2c1 [Compound 181082] | – | ++ (“++” >20% and <100% increase in NMNAT2 luciferase activity.)
CCCCN(C)CCNC(=O)NCc1noc2ccc(C)cc12 [Compound 181070] | – | + (“+” <20% increase in NMNAT2 luciferase activity.)
CCOc1ccccc1CNC(=O)NCc1noc2ccccc12 [Compound 181020] | – | + (“+” <20% increase in NMNAT2 luciferase activity.)
O=C(NCCn1ccc2c(Cl)cccc21)c1ccco1 [Compound 181155] | + (“+” <20% increase in NMNAT2 luciferase activity.) | –
COc1cccc(CNC(=O)NCc2noc3ccc(C)cc23)c1 [Compound 181076] | – | + (“+” <20% increase in NMNAT2 luciferase activity.)
CCc1cccc2c(C(=O)C(F)(F)F)cn(CC(=O)NCc3ccco3)c12 [Compound 181102] | + (“+” <20% increase in NMNAT2 luciferase activity.) | –
CCn1cc(CCC(=O)NCc2ccco2)c2ccccc21 [Compound 181115] | + (“+” <20% increase in NMNAT2 luciferase activity.) | –
CCn1c(=O)c(=O)n(CC(=O)NCc2ccco2)c2ccccc21 [Compound 181138] | + (“+” <20% increase in NMNAT2 luciferase activity.) | –
Cc1ccc(C)c(N(C)C(=O)NCc2noc3ccccc23)c1 [Compound 181016] | – | + (“+” <20% increase in NMNAT2 luciferase activity.)
COc1cccc2ccn(CC(=O)NCc3ccco3)c12 [Compound 181146] | + (“+” <20% increase in NMNAT2 luciferase activity.) | –
